Results: patent US20030229451A1, “Methods and systems for analyzing complex biological systems” (priority 2001, published 2003)

Test system: Saccharomyces cerevisiae wild type strain BY4743
Experiment: AF1 metabolite analysis (GC-MS, LC-MS) of yeast cells treated with antifungal drugs
Type: cell-based
Conditions: for # Compounds perturbed: 2x MIC, two hours

`OC(Cn1cncn1)(Cn1cncn1)c1ccc(F)cc1F` [Fluconazole] was tested, and the “# Compounds perturbed” value (P < 0.05) was 2, the “# Compounds perturbed” value (P < 0.1) was 6 and the “Fold Change, alanine” value (platform GC) was 0.3084. The “Fold Change, asparagine” value (platform GC) was 0.3999, the “Fold Change, aspartic acid” value (platform GC) was 0.4337 and the “Fold Change, campesterol” value (platform GC) was 0. The “Fold Change, desmosterol” value (platform GC) was 0, the “Fold Change, disaccaride1” value (platform GC) was 0.3883 and the “Fold Change, disaccaride2” value (platform GC) was 0.1517. For the same compound, the “Fold Change, disaccaride3” value (platform GC) was 0.5803, the “Fold Change, ergosterol” value (platform GC) was 0.948 and the “Fold Change, fucosterol” value (platform GC) was 6.665. The “Fold Change, glutamine” value (platform GC) was 0.5242, the “Fold Change, glycanopyrose” value (platform GC) was 1.202 and the “Fold Change, glycerol” value (platform GC) was 0.2187. The “Fold Change, glycine” value (platform GC) was −0.1037, the “Fold Change, hexadecanoic acid” value (platform GC) was 0.1343 and the “Fold Change, iso citric acid” value (platform GC) was 0.3923. For the same compound, the “Fold Change, isoleucine” value (platform GC) was 0.391, the “Fold Change, lanosterol” value (platform GC) was 8.462 and the “Fold Change, leucine” value (platform GC) was 0.3387. For the same compound, the “Fold Change, lysine” value (platform GC) was 0.3412, the “Fold Change, malic acid” value (platform GC) was 0.3975 and the “Fold Change, mevalonic acid lactone” value (platform GC) was 0.2333. The “Fold Change, octadecanoic acid” value (platform GC) was 0.082, the “Fold Change, oleic acid” value (platform GC) was −0.3073 and the “Fold Change, ornithine2” value (platform GC) was 0.4473. For the same compound, the “Fold Change, ornithine3” value (platform GC) was 0.2647, the “Fold Change, palmiteliadic acid” value (platform GC) was −0.08867 and the “Fold Change, phenylalanine” value (platform GC) was 0.2774. The “Fold Change, phosphate” value (platform GC) was −0.508, the “Fold Change, pyrimidine” value (platform GC) was 0.2457 and the “Fold Change, 2-ketobutyric acid” value (platform nLC) was −0.9992. The “Fold Change, 2-ketoglutaric” value (platform nLC) was −0.9995, the “Fold Change, 3-indolylacetonitri” value (platform nLC) was −0.9998 and the “Fold Change, 4-methylcatechol” value (platform nLC) was 0. The “Fold Change, 4aminobutyrate/dimg” value (platform nLC) was 0.1384, the “Fold Change, 5hydroxyLtryptophan” value (platform nLC) was 0 and the “Fold Change, 6-benzylaminopurine” value (platform nLC) was 0. For the same compound, the “Fold Change, DLaminoadipic acid” value (platform nLC) was 0.443, the “Fold Change, NacetylDglucosamine” value (platform nLC) was 0 and the “Fold Change, NacetylLglutamate” value (platform nLC) was 0.1369. The “Fold Change, NacetylLornithine” value (platform nLC) was 0, the “Fold Change, abscisic acid” value (platform nLC) was 0 and the “Fold Change, aconitic acid” value (platform nLC) was 0.6483. The “Fold Change, adenine” value (platform nLC) was 0, the “Fold Change, adenosine” value (platform nLC) was 0 and the “Fold Change, alanine” value (platform nLC) was 0.399. For the same compound, the “Fold Change, allantoic acid” value (platform nLC) was 0.2392, the “Fold Change, allantoin” value (platform nLC) was 0.3942 and the “Fold Change, anthranilic acid” value (platform nLC) was 0. The “Fold Change, arginine” value (platform nLC) was 0.6484, the “Fold Change, argininosuccinate” value (platform nLC) was 0 and the “Fold Change, asparagine” value (platform nLC) was 0.3545. The “Fold Change, aspartic” value (platform nLC) was 0.4993, the “Fold Change, benzoic acid” value (platform nLC) was 0 and the “Fold Change, biotin” value (platform nLC) was 0.3455. The “Fold Change, caffeic acid” value (platform nLC) was −0.4711, the “Fold Change, catechol” value (platform nLC) was 0 and the “Fold Change, cinnamic acid” value (platform nLC) was 0. For the same compound, the “Fold Change, citricanoic/itaconi.” value (platform nLC) was 0, the “Fold Change, citrulline” value (platform nLC) was 0 and the “Fold Change, coumaric acid” value (platform nLC) was 0. The “Fold Change, cytidine” value (platform nLC) was −0.7969, the “Fold Change, cytosine” value (platform nLC) was 0 and the “Fold Change, decanoic acid” value (platform nLC) was 0.1846. The “Fold Change, diaminopimelic acid” value (platform nLC) was 0, the “Fold Change, dihydrofolic acid” value (platform nLC) was 0 and the “Fold Change, estrone” value (platform nLC) was 0. For the same compound, the “Fold Change, farnesol” value (platform nLC) was 0, the “Fold Change, folic acid” value (platform nLC) was 0 and the “Fold Change, fumaric/3m2oxobutan” value (platform nLC) was 0.6009. For the same compound, the “Fold Change, gallic acid” value (platform nLC) was 0.5071, the “Fold Change, gibberellic” value (platform nLC) was 0 and the “Fold Change, glucosamine6PO4” value (platform nLC) was −0.9951. The “Fold Change, glutamic/acetylseri” value (platform nLC) was 0.3842, the “Fold Change, glutamine/lysine” value (platform nLC) was 0.3309 and the “Fold Change, guanine” value (platform nLC) was 0. The “Fold Change, guanosine” value (platform nLC) was −0.993, the “Fold Change, histidine” value (platform nLC) was 0 and the “Fold Change, homogentisic/uric” value (platform nLC) was 0. The “Fold Change, hydrocortisone” value (platform nLC) was 0, the “Fold Change, hypoxanthine” value (platform nLC) was 0.7757 and the “Fold Change, indole3pyruvic acid” value (platform nLC) was 0. For the same compound, the “Fold Change, inostol/glucos/sorb” value (platform nLC) was −0.4744, the “Fold Change, isocitric/citric/qu” value (platform nLC) was 1.457 and the “Fold Change, jasmonic acid” value (platform nLC) was 0. For the same compound, the “Fold Change, kinetin” value (platform nLC) was 0, the “Fold Change, lactic acid” value (platform nLC) was −0.0439 and the “Fold Change, lauric acid” value (platform nLC) was 0.3906. The “Fold Change, leucine/isoleucine/” value (platform nLC) was 0.3306, the “Fold Change, luteolin” value (platform nLC) was 0 and the “Fold Change, malic acid” value (platform nLC) was 0.4366. The “Fold Change, malonic acid” value (platform nLC) was 0, the “Fold Change, menthol*” value (platform nLC) was 0.04758 and the “Fold Change, methionine” value (platform nLC) was 0. For the same compound, the “Fold Change, nicotinic acid” value (platform nLC) was 2.443, the “Fold Change, nopaline” value (platform nLC) was 0.3432 and the “Fold Change, oleic acid” value (platform nLC) was −0.01684. For the same compound, the “Fold Change, ornithine” value (platform nLC) was 0.3508, the “Fold Change, orotic acid” value (platform nLC) was 0 and the “Fold Change, palmitic acid” value (platform nLC) was −0.0233. The “Fold Change, phenylalanine” value (platform nLC) was 0.1527, the “Fold Change, phenylpyruvic acid” value (platform nLC) was 0 and the “Fold Change, phosphoenolpyruvate” value (platform nLC) was 0. The “Fold Change, pinitol” value (platform nLC) was 0, the “Fold Change, pipecolic acid” value (platform nLC) was 0.2901 and the “Fold Change, porphobilinogen” value (platform nLC) was 0. For the same compound, the “Fold Change, proline” value (platform nLC) was 0.4164, the “Fold Change, pyridoxine” value (platform nLC) was −0.04201 and the “Fold Change, 4-aminobenzoic acid” value (platform pLC) was 0. The “Fold Change, 4-methylcatechol” value (platform pLC) was 0, the “Fold Change, 4ambutyrate/dimglyc” value (platform pLC) was −0.4383 and the “Fold Change, 5hydroxyLtryptophan” value (platform pLC) was 0. For the same compound, the “Fold Change, 6benzylaminopurine” value (platform pLC) was 0, the “Fold Change, DL-aminoadipic acid” value (platform pLC) was 0.1155 and the “Fold Change, NacetylDglucosamine” value (platform pLC) was 0. For the same compound, the “Fold Change, NacetylLglutamate” value (platform pLC) was 0, the “Fold Change, NacetylLornithine” value (platform pLC) was 0.1584 and the “Fold Change, abscisic acid” value (platform pLC) was 0. For the same compound, the “Fold Change, adenine” value (platform pLC) was −0.09439, the “Fold Change, adenosine” value (platform pLC) was 0 and the “Fold Change, alanine/sarcosine” value (platform pLC) was 0.1269. The “Fold Change, allantoic acid” value (platform pLC) was 0, the “Fold Change, anthranilic acid” value (platform pLC) was 0 and the “Fold Change, arginine” value (platform pLC) was 0.1179. The “Fold Change, argininosuccinate” value (platform pLC) was 0, the “Fold Change, asparagine” value (platform pLC) was 0.3192 and the “Fold Change, aspartic acid” value (platform pLC) was 0.214. For the same compound, the “Fold Change, biotin” value (platform pLC) was 0, the “Fold Change, caffeine” value (platform pLC) was 0 and the “Fold Change, citric acid TME” value (platform pLC) was 0. For the same compound, the “Fold Change, citrulline” value (platform pLC) was 0.08252, the “Fold Change, cytidine” value (platform pLC) was 0 and the “Fold Change, cytosine” value (platform pLC) was 0. For the same compound, the “Fold Change, diaminopimelic acid” value (platform pLC) was 0, the “Fold Change, dihydrofolic acid” value (platform pLC) was 0 and the “Fold Change, dipicolinic acid” value (platform pLC) was 0. For the same compound, the “Fold Change, folic acid” value (platform pLC) was 0, the “Fold Change, glucosamine” value (platform pLC) was 0 and the “Fold Change, glucosamine6PO4” value (platform pLC) was 0. For the same compound, the “Fold Change, glutamate” value (platform pLC) was −0.06179, the “Fold Change, glutamine/lysine” value (platform pLC) was 0.2242 and the “Fold Change, glutathione” value (platform pLC) was −0.05832. The “Fold Change, guanosine” value (platform pLC) was −0.9981, the “Fold Change, histidine” value (platform pLC) was 0 and the “Fold Change, hydrocortisone” value (platform pLC) was 0. The “Fold Change, hypoxanthine” value (platform pLC) was 0.1298, the “Fold Change, itaconic acid dimes” value (platform pLC) was 0 and the “Fold Change, kinetin” value (platform pLC) was 0. The “Fold Change, leucine/isoleucine/” value (platform pLC) was 0.1638, the “Fold Change, luteolin” value (platform pLC) was 0 and the “Fold Change, mannitol” value (platform pLC) was 0.152. For the same compound, the “Fold Change, methionine” value (platform pLC) was −0.2906, the “Fold Change, mevalonic lactone” value (platform pLC) was −0.5175 and the “Fold Change, niacinamide” value (platform pLC) was 0. The “Fold Change, nicotinic acid” value (platform pLC) was −0.7982, the “Fold Change, nopaline” value (platform pLC) was 0 and the “Fold Change, ornithine” value (platform pLC) was 0.4775. The “Fold Change, phenylalanine” value (platform pLC) was −0.1809, the “Fold Change, phosphoenolpyruvate” value (platform pLC) was 0 and the “Fold Change, pipecolic acid” value (platform pLC) was 0.2583. The “Fold Change, progesterone” value (platform pLC) was 0, the “Fold Change, proline” value (platform pLC) was 0.2075 and the “Fold Change, pyridoxine” value (platform pLC) was −0.3831.
